Experimental data published in patent US20050239656A1, “Pyridine compounds or salts thereof and herbicides containing the same” (priority 2002, published 2005).

Tests used:
[1] = tested on: barnyardgrass; experiment: Test Example 3: paddy pot test, application under submerged conditions; assay type: in vivo, Echinochloa crus-galli L.; settings: submerged application at 0.5 leaf stage, visually observed 14 days after application, 0 = non-treated, 100 = complete kill
Description: (§1) Paddy field soil was put into a 1/1,000,000 ha pot, and seed of barnyardgrass and japanese bulrush were sown and slightly covered with soil. Then, the pot was left to stand still in a greenhouse in a state where the depth of flooding water was from 0.5 to 1 cm, and one day or two days later, tubers of japanese ribbon wapato were planted. Thereafter, the depth of flooding water was maintained at a level of from 3 to 4 cm, and when barnyardgrass and japanese bulrush reached a 0.5 leaf stage and japanese ribbon wapato reached a primary leaf stage, an aqueous diluted solution of a wettable powder or emulsifiable concentrate having the compound of the present invention formulated in accordance with a usual formulation method, was uniformly applied under submerged conditions by a pipette so that the dose of the active ingredient would be at a predetermined level. On the 14 days after the application of the herbicide, the growth of barnyard grass, japanese burlrush and japanese ribbon wapato was visually observed and on the 21st day after the application of the herbicide, the growth of rice was visually observed, and the herbicidal effects were evaluated by the growth-controlling degrees (%) ranging from 0 (equivalent to the non-treated plot) to 100 (complete kill), whereby the results shown in Table 5 were obtained.

[2] = tested on: japanese bulrush; experiment: as above; assay type: in vivo, Scirpus juncoides; settings: submerged application at 0.5 leaf stage, visually observed 14 days after application, 0 = non-treated, 100 = complete kill
Description: as §1

[3] = tested on: rice (var. Nihonbare); experiment: Test Example 3: paddy pot test, transplanted rice; assay type: in vivo, Oryza sativa L.; settings: applied 4th day after transplantation, visually observed 21st day after application, 0 = non-treated, 100 = complete kill
Description: as §1, with “On the other hand, paddy field soil was put into a 1/1,000,000 ha pot and puddled and leveled, and the depth of flooding water was from 3 to 4 cm. Next day, rice (var. Nihonbare) of 2 leaf stage was transplanted in a depth of 3 cm. On the 4th day after the transplantation, the compound of the present invention was applied in the same manner as described above. On the 14 days” for “On the 14 days”

[4] = tested on: japanese ribbon wapato; experiment: Test Example 3: paddy pot test, application under submerged conditions; assay type: in vivo, Sagittaria pygniaea; settings: submerged application at primary leaf stage, visually observed 14 days after application, 0 = non-treated, 100 = complete kill
Description: as §1

Compound	Growth controlling degree (%) Barnyardgrass ([1]; active ingredient 250 g/ha)	Growth controlling degree (%) Japanese bulrush ([2]; active ingredient 250 g/ha)	Growth controlling degree (%) Rice ([3]; active ingredient 250 g/ha)	Growth controlling degree (%) Barnyardgrass ([1]; active ingredient 500 g/ha)	Growth controlling degree (%) Japanese bulrush ([2]; active ingredient 500 g/ha)	Growth controlling degree (%) Rice ([3]; active ingredient 500 g/ha)	further results
CC(Oc1ccc(F)cc1F)C(=O)N(C)C(c1cnccc1C(F)(F)F)C(C)C (mixture of isomers) [I-138]	98%	100%	10%				
CC(Oc1ccc(Cl)cc1)C(=O)N(C)C(c1cnccc1C(F)(F)F)C(C)C (mixture of isomers) [I-139]	98%	98%	10%				
CC(Sc1ccccc1)C(=O)N(C)C(c1cnccc1C(F)(F)F)C(C)C (mixture of isomers) [I-140]	98%	98%	0%				
CC(Sc1ccc(Cl)cc1)C(=O)N(C)C(c1cnccc1C(F)(F)F)C(C)C (mixture of isomers) [I-141]	100%	98%	20%				
CC(C)C(c1cnccc1Br)N(C)C(=O)Cc1ccccc1 (racemic) [I-110]	98%	90%	0%				Growth controlling degree (%) Japanese ribbon wapato ([4]; active ingredient 250 g/ha): 20%
CC(C)C(c1cnccc1C(F)(F)F)N(C)C(=O)OCc1ccccc1 (racemic) [I-111]	90%	10%	0%				
CC(C)C(NC(=O)c1ccccc1)c1cnccc1C(F)(F)F (racemic) [I-115]				70%	40%	20%	Growth controlling degree (%) Japanese ribbon wapato ([4]; active ingredient 500 g/ha): 20%
Cc1cc(F)ccc1CC(=O)N(C)C(c1cnccc1C(F)(F)F)C(C)C (racemic) [I-116]				100%	95%	10%	Growth controlling degree (%) Japanese ribbon wapato ([4]; active ingredient 500 g/ha): 50%
CC(C)C(c1ccc(C(F)(F)F)nc1)N(C)C(=O)Cc1ccccc1 (racemic) [I-123]				70%	10%	10%	
CC(C)C(NC(=O)Cc1ccc(C(F)(F)F)cc1)c1cnccc1C(F)(F)F (centres unmarked) [I-7]				95%	70%	20%	Growth controlling degree (%) Japanese ribbon wapato ([4]; active ingredient 500 g/ha): 0%
CC(C)C(c1cnccc1C(F)(F)F)N(C)C(=O)Cc1ccc(-c2ccccc2)cc1 (centres unmarked) [I-9]				100%	10%	0%	Growth controlling degree (%) Japanese ribbon wapato ([4]; active ingredient 500 g/ha): 30%
CCN(C(=O)Cc1ccccc1)C(c1cnccc1C(F)(F)F)C(C)C (centres unmarked) [I-24]					95%	40%	Growth controlling degree (%) Japanese ribbon wapato ([4]; active ingredient 500 g/ha): 100%
COc1ccccc1CC(=O)N(C)C(c1cnccc1C(F)(F)F)C(C)C (centres unmarked) [I-35]	100%	95%	0%				Growth controlling degree (%) Japanese ribbon wapato ([4]; active ingredient 250 g/ha): 70%
CSc1ccc(CC(=O)N(C)C(c2cnccc2C(F)(F)F)C(C)C)cc1 (centres unmarked) [I-37]	100%	50%	0%				Growth controlling degree (%) Japanese ribbon wapato ([4]; active ingredient 250 g/ha): 10%
CCCC(=O)NC(c1cnccc1C(F)(F)F)c1cccc2ccccc12 (centres unmarked) [I-49]				90%	85%	10%	
CCCC(=O)N(C)C(c1cnccc1C(F)(F)F)c1cccc2ccccc12 (centres unmarked) [I-50]				95%	95%	10%	

Compound	Growth controlling degree (%) Barnyardgrass ([1]; active ingredient 250 g/ha)	Growth controlling degree (%) Japanese bulrush ([2]; active ingredient 250 g/ha)	Growth controlling degree (%) Rice ([3]; active ingredient 250 g/ha)	Growth controlling degree (%) Barnyardgrass ([1]; active ingredient 500 g/ha)	Growth controlling degree (%) Japanese bulrush ([2]; active ingredient 500 g/ha)	Growth controlling degree (%) Rice ([3]; active ingredient 500 g/ha)	further results
CC(C)C(c1cnccc1C(F)(F)F)N(C)C(=O)Cc1cccc2ccccc12 (centres unmarked) [I-56]				95%	70%	20%	Growth controlling degree (%) Japanese ribbon wapato ([4]; active ingredient 500 g/ha): 90%
CC(C)C(c1cnccc1C(F)(F)F)N(C)C(=O)Cc1ccc2ccccc2c1 (centres unmarked) [I-58]				100%	40%	35%	Growth controlling degree (%) Japanese ribbon wapato ([4]; active ingredient 500 g/ha): 0%
CC(C)C(c1cnccc1Cl)N(C)C(=O)Cc1ccc2ccccc2c1 (centres unmarked) [I-59]				90%	10%	10%	Growth controlling degree (%) Japanese ribbon wapato ([4]; active ingredient 500 g/ha): 60%
CC(C)C(c1cnccc1Cl)N(C)C(=O)Cc1ccc(F)cc1F (centres unmarked) [I-71]							Growth controlling degree (%) Barnyardgrass ([1]; active ingredient 125 g/ha): 90%; Growth controlling degree (%) Japanese bulrush ([2]; active ingredient 125 g/ha): 90%; Growth controlling degree (%) Japanese ribbon wapato ([4]; active ingredient 125 g/ha): 40%; Growth controlling degree (%) Rice ([3]; active ingredient 125 g/ha): 0%
CCN(C(=O)Cc1cccc(F)c1F)C(c1cnccc1C(F)(F)F)C(C)C (centres unmarked) [I-77]	98%	95%	0%				Growth controlling degree (%) Japanese ribbon wapato ([4]; active ingredient 250 g/ha): 40%
CCN(C(=O)Cc1ccccc1F)C(c1cnccc1C(F)(F)F)C(C)C (centres unmarked) [I-78]	100%	70%	20%				Growth controlling degree (%) Japanese ribbon wapato ([4]; active ingredient 250 g/ha): 40%
CC(C)C(c1cnccc1Cl)N(C)C(=O)Cc1ccc(Cl)c(Cl)c1 (centres unmarked) [I-80]	98%	90%	20%				Growth controlling degree (%) Japanese ribbon wapato ([4]; active ingredient 250 g/ha): 20%
Cc1ccccc1CC(=O)N(C)C(c1cnccc1Cl)C(C)C (centres unmarked) [I-83]	98%	98%	10%				Growth controlling degree (%) Japanese ribbon wapato ([4]; active ingredient 250 g/ha): 20%
Cc1cccc(CC(=O)N(C)C(c2cnccc2Cl)C(C)C)c1 (centres unmarked) [I-88]	100%	70%	0%				Growth controlling degree (%) Japanese ribbon wapato ([4]; active ingredient 250 g/ha): 50%
CC(C)C(c1cnccc1Cl)N(C)C(=O)Cc1c(F)ccc(F)c1F (centres unmarked) [I-89]	100%	95%	0%				Growth controlling degree (%) Japanese ribbon wapato ([4]; active ingredient 250 g/ha): 40%
CC(C)C(c1cnccc1C(F)(F)F)N(C)S(=O)(=O)C=Cc1ccc(Cl)cc1 (centres unmarked) [I-142]	100%	60%	10%				
CC(C)C(c1cnccc1C(F)(F)F)N(C)C(=O)C(F)(F)c1ccccc1 (centres unmarked) [I-143]	98%	98%	10%				
COc1ccc(S(=O)(=O)N(C)C(c2cnccc2C(F)(F)F)C(C)C)cc1 (centres unmarked) [I-144]	100%	98%	20%				
CC(C)C(c1cnccc1C(F)(F)F)N(C)S(=O)(=O)c1ccc(C(C)(C)C)cc1 (centres unmarked) [I-145]	100%	0%	20%				
C=CCCC(=O)N(C)C(c1cnccc1C(F)(F)F)C(C)C (centres unmarked) [I-211]	100%	98%	50%				
